The values that follow come from paper PMC4469266 (Bioorganic & medicinal chemistry letters, 2015).

The target in the experiment is dopamine D1 receptor (Rattus norvegicus, UniProt P18901). Kind of experiment: competition autoradiography with 3H-SCH […] in rat brain slices.
Chain of dopamine D1 receptor (P18901 whole entry): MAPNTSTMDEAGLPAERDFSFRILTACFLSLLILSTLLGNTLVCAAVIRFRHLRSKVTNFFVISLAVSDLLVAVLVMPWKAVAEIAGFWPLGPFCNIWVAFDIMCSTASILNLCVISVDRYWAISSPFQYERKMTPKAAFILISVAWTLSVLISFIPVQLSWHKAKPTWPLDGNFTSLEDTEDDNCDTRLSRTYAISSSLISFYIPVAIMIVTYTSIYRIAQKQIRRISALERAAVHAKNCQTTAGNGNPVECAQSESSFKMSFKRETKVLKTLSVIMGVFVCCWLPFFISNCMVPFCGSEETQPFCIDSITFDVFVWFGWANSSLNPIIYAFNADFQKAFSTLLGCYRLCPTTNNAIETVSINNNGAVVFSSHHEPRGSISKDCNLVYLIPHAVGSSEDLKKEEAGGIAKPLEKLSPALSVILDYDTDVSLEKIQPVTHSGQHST

In general, Ki refers to the equilibrium dissociation constant of an inhibitor or competing ligand from its target. Read a high Ki as weaker binding. As for `CN1CCc2cc(Cl)c(O)cc2C(c2cccc(NC[C@H](F)[C@@H](O)[C@H](O)[C@H](O)CO)c2)C1` (stereo partly drawn) [compound 7, 7-chloro-8-hydroxy-3-methyl-l-(3’-fluorodeoxyglucaminophenyl)-2,3,4,5-tetrahydro-lH-3-benzazepine], the affinity, expressed as Ki, was 19.5 nM.
